# Results from ChEMBL document CHEMBL1129273, “Structural modifications of thalidomide produce analogs with enhanced tumor necrosis factor inhibitory activity” (J Med Chem, 1996).
# Molecular target: T1, Tumor necrosis factor (Homo sapiens, UniProt P01375)
# Experiment: Inhibitory activity of TNF-alpha was measured in the supernatant of human PBMCs stimulated with LPS.
# Assay type: functional
# T1 sequence (P01375 whole entry): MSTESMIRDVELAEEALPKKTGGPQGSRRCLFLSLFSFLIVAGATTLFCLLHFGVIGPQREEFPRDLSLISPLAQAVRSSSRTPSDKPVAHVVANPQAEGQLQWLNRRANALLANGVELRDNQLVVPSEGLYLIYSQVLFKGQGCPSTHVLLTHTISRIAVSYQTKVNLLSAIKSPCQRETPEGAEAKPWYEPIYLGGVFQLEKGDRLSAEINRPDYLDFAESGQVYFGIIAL
row,SMILES,IC50 [µM]
1,COC(=O)CC(c1ccc(OC)c(OC)c1)N1C(=O)c2cccc([N+](=O)[O-])c2C1=O (stereo unspecified),64
2,COC(=O)CC(c1ccc(OC)c(OC)c1)N1C(=O)c2c(Cl)ccc(Cl)c2C1=O (stereo unspecified),7.9
3,COC(=O)CC(c1ccc(OC)c(OC)c1)N1C(=O)c2cc(Cl)c(Cl)cc2C1=O (stereo unspecified),13
4,COC(=O)CC(c1ccc(OC)c(OC)c1)N1C(=O)c2ccc([N+](=O)[O-])cc2C1=O (stereo unspecified),34

# Molecular target: T1, Tumor necrosis factor
# Experiment: Inhibition of TNF-alpha production in LPS stimulated human PBMCs
# Assay type: functional
row,SMILES,IC50 [µM]
1,COC(=O)CC(c1ccc(OC)c(OC)c1)N1C(=O)c2ccc(N)cc2C1=O (stereo unspecified),0.38
2,NC(=O)CC(c1ccc2ccccc2c1)N1C(=O)c2ccccc2C1=O (stereo unspecified),51
3,NC(=O)CC(c1ccc(Cl)c(Cl)c1)N1C(=O)c2ccccc2C1=O (stereo unspecified),70
4,N#Cc1ccc(C(CC(N)=O)N2C(=O)c3ccccc3C2=O)cc1 (stereo unspecified),150
5,COC(=O)CC(c1ccc(OC)c(OC)c1)N1C(=O)c2cccc(O)c2C1=O (stereo unspecified),15
6,COc1ccc(C(CC(N)=O)N2C(=O)c3ccccc3C2=O)cc1 (stereo unspecified),62
7,COc1ccc(C(CC(=O)NCc2ccccc2)N2C(=O)c3ccccc3C2=O)cc1OC (stereo unspecified),84
8,CCOc1ccc(C(CC(N)=O)N2C(=O)c3ccccc3C2=O)cc1OCC (stereo unspecified),5.6
9,CCCOc1ccc(C(CC(N)=O)N2C(=O)c3ccccc3C2=O)cc1OCCC (stereo unspecified),55
10,COc1ccc(C(CC(N)=O)N2C(=O)c3ccccc3C2=O)cc1OC (stereo unspecified),12
11,COC(=O)CC(c1ccc(OC)c(OC)c1)N1C(=O)c2cc3ccccc3cc2C1=O (stereo unspecified),4.7
12,CNC(=O)CC(c1ccc(OC)c(OC)c1)N1C(=O)c2ccccc2C1=O (stereo unspecified),12
13,COc1cc(OC)cc(C(CC(N)=O)N2C(=O)c3ccccc3C2=O)c1 (stereo unspecified),39
14,COC(=O)CC(c1ccc(OC)c(OC)c1)N1C(=O)c2cccc(N)c2C1=O (stereo unspecified),0.45
15,COc1ccc(C(CC(=O)O)N2C(=O)c3ccccc3C2=O)cc1OC (stereo unspecified),60
16,COC(=O)CC(c1ccc(OC)c(OC)c1)N1C(=O)c2ccccc2C1=O (stereo unspecified),2.9
17,CCNC(=O)CC(c1ccc(OC)c(OC)c1)N1C(=O)c2ccccc2C1=O (stereo unspecified),53
18,COc1ccc(C(CCO)N2C(=O)c3ccccc3C2=O)cc1OC (stereo unspecified),7.5
19,COc1cccc(C(CC(N)=O)N2C(=O)c3ccccc3C2=O)c1 (stereo unspecified),120
20,NC(=O)CC(c1ccccc1)N1C(=O)c2ccccc2C1=O (stereo unspecified),260
21,COC(=O)CC(c1ccc(OC)c(OC)c1)N1C(=O)c2ccc(C(C)(C)C)cc2C1=O (stereo unspecified),4.2
22,N#Cc1cccc(C(CC(N)=O)N2C(=O)c3ccccc3C2=O)c1 (stereo unspecified),89
